# Legend:
# RAW264 cells [1] = test: Cell number (MTT) in osteoclast differentiation culture; type: cell-based, mouse; details: RANKL 50 ng/ml, 3 days, FIG. 7 open bars
# Procedure: (§1) RAW264 cells were suspended in α-MEM and plated in a 96-well microplate at a concentration of 3×10^3 cells/well. The compounds of the present invention at each concentration and the osteoclast differentiation-inducing factor (RANKL) were added at 50 ng/ml and the cells were cultured for 3 days in an incubator at 37° C. and 5% CO2. After incubation, the cells were fixed with a 10% formalin solution and refixed with 100% ethanol.
# In addition, after similarly cultured, the cells were counted by a conventional method using a MTT reagent, and the value calculated by taking the control as 100 was shown.
# MC3T3-E1 cells [2] = test: Initial osteoblast differentiation, alkaline phosphatase (ALP) activity; type: cell-based, mouse; details: compound 1-100 μM, 6 days; FIG. 2 solid bars
# Procedure: (§2) MC3T3-E1 cells which are mouse pre-osteoblastic cells were suspended in α-MEM and plated on each well of a 96-well microplate at a concentration of 5×10^3 cells/well. After 2-day pre-incubation in 10% FBS-containing α-MEM under a condition of 37° C. and 5% CO2, the culture medium was replaced with 10% FBS-containing α-MEM containing a compound at a concentration of 1, 3, 10, 30 or 100 μM and the cells were cultured for 6 days. During the incubation, the culture medium was replaced once in every 3 days. The cells cultured in the same manner using the medium without coumarin compounds were used as a control.
# (§3) In addition, the activity of alkaline phosphatase (ALP), a marker enzyme of initial osteoblast differentiation, was measured by the following method. After incubation, the cells were fixed with cold methanol, and the dishes were dried. 100 μl of buffer of pH 8.5 containing 2 mM magnesium chloride and 100 mM Tris-HCl, with 6.7 mM p-nitrophenylphosphate as a substrate, was dispensed in each well and allowed to react at 37° C. for 30 minutes. Then, 100 μl of 0.1 N sodium hydroxide was added to terminate the reaction, followed by measurement with a plate reader of the absorbance at 405 nm, which was determined to be the ALP activity. The value was calculated by taking the control as 100.
# MC3T3-E1 cells [3] = test: Osteoblast calcification, alizarin red S staining; type: cell-based, mouse; details: compared with control
# Procedure: 3. Effects on Osteoblast Calcification MC3T3-E1 cells were suspended in α-MEM and plated in each well of a 96-well microplate at a concentration of 5×10^3 cells/well and pre-incubated for 2 days in 10% FBS-containing α-MEM under a condition of 37° C. and 5% CO2. Thereafter, the culture medium was replaced with 10% FBS-containing α-MEM containing a compound at a concentration of 1, 3, 10 or 30 μM, 50 μg/ml ascorbic acid and 10 mM β-glycerophosphoric acid, and the cells were cultured for 10 days. During the incubation, the culture medium was changed once in every 3 or 4 days.
# After incubation, the cells were fixed with 70% ethanol, the dishes were dried, and calcium deposits were stained with a 1% alizarin red S solution. The image of the stained plate was obtained using a scanner. In addition, the degree of stain (degree of calcification) was evaluated by naked eyes.
# MC3T3-E1 cells [4] = test: Comparison with BMP-2 and effect of BMP signal inhibitors on ALP activity; type: cell-based, mouse; details: 6 days
# Procedure: as §3
# Upon the addition of the sample, the cells were cultured for 6 days in the presence or absence of 10 ng/ml Noggin, a BMP inhibitor, or 1 μM Dorsomorphin, an inhibitor of type I BMP receptor (ALK) (the above concentrations are the final concentrations), and the ALP activities were measured in the same manner as above.
# MC3T3-E1 cells [5] = test: Effect on osteoblast proliferation (MTT); type: cell-based, mouse; details: compound 1, 3, 10 or 30 μM, 3 days, FIG. 1
# Procedure: The effect on osteoblast proliferation was determined by the following method.
# MC3T3-E1 cells were suspended in α-MEM and plated on each well of a 96-well microplate at a concentration of 2×10^3 cells/well. After overnight incubation in 10% fetal bovine serum (FBS)-containing α-MEM under a condition of 37° C. and 5% CO2, the culture medium was replaced with 10% FBS-containing α-MEM containing a compound at a concentration of 1, 3, 10 or 30 μM and cultured for 3 days. The cells cultured in the same manner using the medium containing the same amount of solvent only were used as a control.
# Added was 3-(4,5-Dimethylthiazol-2-yl)-2,5-diphenyltetrazolium bromide (MTT) (5 mg/ml in PBS) in one-tenth amount of the culture medium 2 hours before the completion of incubation. After 2-hour cultivation, the medium was removed, formazan formed by viable cells was dissolved in DMSO and the absorbance at 570 nm (reference wavelength of 630 nm) was measured with a plate reader. The relative cell numbers were determined by calculating the values taking the control as 100 (average plus or minus standard deviation of 4 wells or more; the same hereinafter).
# RAW264 cells [6] = test: Osteoclast differentiation, TRAP activity; type: cell-based, mouse; details: RANKL 50 ng/ml, 3 days; FIG. 7 solid bars
# Procedure: RAW264 cells (mouse monocyte/macrophage cell line, cell No. RCB0535) were purchased from RIKEN Cell Bank. The osteoclast differentiation-inducing factor (RANKL) was obtained from Wako Pure Chemical Industries, Ltd. Others used were the same as above.
# as §1
# After the dishes were dried, as an index of differentiation, the activity of tartrate-resistant acid phosphatase (TRAP), a marker enzyme of osteoclasts, was measured by the following method.
# For measurement of the TRAP activity, a buffer containing 10 mM tartrate and 50 mM citrate of pH 4.6, with 3.7 mM p-nitrophenylphosphate as a substrate, was used. […] Thereafter, 100 μl of 0.1 N sodium hydroxide was added to terminate the reaction, followed by measurement of the absorbance at 405 nm with a plate reader. Each absorbance was determined to be the TRAP activity, and the value calculated by taking control as 100 was shown.
# MC3T3-E1 cells [7] = test: Expression of genes related to osteoblast differentiation, real-time RT-PCR; type: cell-based, mouse; details: compared with control
# Procedure: The effects on the expression of various genes related to osteoblast differentiation were analyzed using the real-time RT-PCR method.
# MC3T3-E1 cells were plated in each well of a 6-well plate (Greiner) at a concentration of 1.5×10^5 cells/well and cultured in the same manner as above. […] After incubation, the culture medium was removed and the cells were washed with PBS. Thereafter, “ISOGEN” (trade name, Wako Pure Chemical Industries, Ltd.) was added in an amount of 1 ml/well and the cells were collected. RNA purification was conducted according to the protocol described in the package insert of “ISOGEN”.
# Reverse transcription was performed using “PrimeScript RT-PCR Kit” (trade name, TaKaRa) with 2 μg of purified RNA according to the protocol described in the package insert, thereby synthesizing the cDNA sample.
# Real-time PCR was performed using “FastStart Universal SYBR Green Master (Rox)” (trade name, Roche) according to the protocol described in the package insert under the following conditions: incubation at 50° C. for 2 min and at 95° C. for 10 min, followed by 50 cycles of 15 sec at 95° C. and 1 min at 60° C. Data were analyzed with “ABI PRISM 7300 sequence detection system” (trade name, Applied Biosystems).
# Primers used were as described in the following Table 2.
# Data analysis was performed as follows using β-actin as an endogenous control gene by the comparative Ct method.
# Δ Ct=(Ct of target gene)−(Ct of endogenous control gene)
# ΔΔ Ct=(Δ Ct of target sample)−(Δ Ct of reference sample)
# Relative expression level of target gene of target sample to that of reference sample=2 (^−ΔΔ^Ct)
# MC3T3-E1 cells [8] = test: Cell number (MTT) in initial osteoblast differentiation culture; type: cell-based, mouse; details: compound 1-100 μM, 6 days, FIG. 2 open bars
# Procedure: as §2
# At the end of incubation, the cell number was measured by the same method as above using a MTT reagent and the value was calculated by taking the control as 100.
# [9] = test system: Postmenopausal osteoporosis model mice; test: Bone formation-promoting effect in vivo, ovariectomized mice, femur pQCT; design: species or system mouse; details: OVX mice, 50 mg/kg/day oral, 30+30 days, versus OVX-Con
# Procedure: Postmenopausal osteoporosis model mice were prepared by ovariectomy and test compounds were administrated to the mice with decreased bone mass, to examine the effects on bone formation in vivo level.
# Slc; ddY mice (4 week-old, female) were purchased from Chubu Kagaku Shizai Co., Ltd. After 2 days, ovariectomy (“OVX”) or sham operation (“Sham”) was performed under Nembutal anesthesia. After the mice were bred for 1 month in order to decrease bone mass due to the progression in bone resorption, a part of mice in each group (OVX: N=5, Sham: N=3) were killed to collect the femurs. The rest of mice in the ovariectomy (“OVX”) group were divided into two groups: solvent administration group (“OVX-Con”: N=6) and auraptene administration group (50 mg/kg/day, oral administration, “OVX-AUR”: N=6) and bred for another month together with the sham operation group (Sham-Con: N=6). Thereafter, the mice were killed to collect the femurs.
# The bone mineral content density and the like of the collected femurs were measured by means of pQCT (peripheral Quantitative Computed Tomography) using a bone density measuring apparatus (trade name “XCT Research SA+”, manufactured by Stratec Medizintechnik GmbH).
structure (smiles),measurement,setting,value
"CC(C)=CCC/C(C)=C/COc1ccc2ccc(=O)oc2c1 [auraptene, 2H-1-benzopyran-2-one, 7-[[(2E)-3,7-dimethyl-2,6-octadiene-1-yl]oxy]-]",cell number of RAW264 cells (control as 100),RAW264 cells [1],did not show a significant influence
same,ALP activity (control as 100),MC3T3-E1 cells [2],increased in a concentration-dependent manner
same,calcified portions stained red,MC3T3-E1 cells [3],remarkably increased compared with control
same,effect of promoting ALP activity in presence of Dorsomorphin,"MC3T3-E1 cells [4]; Dorsomorphin 1 μM, auraptene 30 μM or BMP-2 25 ng/ml",diminished
same,effect of promoting ALP activity in presence of Noggin,"MC3T3-E1 cells [4]; Noggin 10 ng/ml, auraptene 30 μM or BMP-2 25 ng/ml",diminished
same,effect of promoting ALP activity,"MC3T3-E1 cells [4]; auraptene 30 μM versus BMP-2 25 ng/ml, FIG. 4",equivalent to or more than that with BMP-2 (25 ng/ml)
same,"cell number of MC3T3-E1 cells (relative, control as 100)",MC3T3-E1 cells [5],little change in cell number
same,TRAP activity as an index of osteoclast differentiation,RAW264 cells [6],do not affect osteoclast differentiation
same,expression of ALP gene,"MC3T3-E1 cells [7]; auraptene 30 μM or BMP-2 50 ng/ml, FIG. 5A",increased
same,expression of osteocalcin gene,"MC3T3-E1 cells [7]; auraptene 30 μM or BMP-2 50 ng/ml, FIG. 5B",increased
same,expression of Runx 2 gene,"MC3T3-E1 cells [7]; auraptene 30 μM or BMP-2 50 ng/ml, FIG. 5C",increased
same,expression of Osterix gene,"MC3T3-E1 cells [7]; auraptene 30 μM or BMP-2 50 ng/ml, FIG. 5D",increased
same,expression of BMP-2 gene,"MC3T3-E1 cells [7]; auraptene 30 μM, FIG. 5E",increased
same,expression of BMP-4 gene,"MC3T3-E1 cells [7]; auraptene 30 μM, FIG. 5F",increased
same,cell viability of MC3T3-E1 cells (control as 100),MC3T3-E1 cells [8],little influence on cell viability
same,trabecular bone mineral density,[9]; FIG. 6A,tended to be high
same,total bone mineral density,[9]; FIG. 6B,tended to be high
same,cortical bone periosteal circumference,[9]; FIG. 6C,tended to be long
same,cortical bone endosteal circumference,[9]; FIG. 6D,tended to be long

# — patent US8729279B2, “Agent for promoting osteoblast differentiation, pharmaceutical composition for promoting bone formation, and food for special dietary use containing auraptene analog as active ingredient” (Erina Co., Inc., priority 2010, dated 2014)
